According to ChEMBL document CHEMBL4507258 (2021):

Legend:
[1] = molecular target: Serine/threonine-protein kinase MAK (Homo sapiens) (UniProt P20794); conditions: Compound concentration 1000.0 nM
[2] = molecular target: Serine/threonine-protein kinase 4 (Homo sapiens) (UniProt Q13043); conditions: Compound concentration 1000.0 nM
[3] = molecular target: Kappa-type opioid receptor (Homo sapiens, UniProt P41145); conditions: Compound concentration 10.0 uM
[4] = molecular target: cGMP-dependent protein kinase 1 (Homo sapiens) (UniProt Q13976); conditions: Compound concentration 1000.0 nM
[5] = molecular target: Serine/threonine-protein kinase PAK 1 (Homo sapiens) (UniProt Q13153); conditions: Compound concentration 1000.0 nM
[6] = molecular target: Ephrin type-B receptor 2 (Homo sapiens) (UniProt P29323); conditions: Compound concentration 1000.0 nM
[7] = tested on: Epidermal growth factor receptor (Homo sapiens), P00533 [L858R]; conditions: Compound concentration 1000.0 nM
[8] = molecular target: Serine/threonine-protein kinase WNK2 (Homo sapiens) (UniProt Q9Y3S1); conditions: Compound concentration 1000.0 nM
[9] = tested on: Tyrosine-protein kinase ABL1 (Homo sapiens), P00519 [Q252H]; conditions: Compound concentration 1000.0 nM
[10] = molecular target: Phosphatidylinositol 4,5-bisphosphate 3-kinase catalytic subunit delta isoform (Homo sapiens) (UniProt O00329); conditions: Compound concentration 1000.0 nM
[11] = molecular target: Serine/threonine-protein kinase STK11 (Homo sapiens) (UniProt Q15831); conditions: Compound concentration 1000.0 nM
[12] = molecular target: Interleukin-1 receptor-associated kinase 1 (Homo sapiens) (UniProt P51617); conditions: Compound concentration 1000.0 nM
[13] = tested on: Mast/stem cell growth factor receptor Kit (Homo sapiens), P10721 [V559D,V654A]; conditions: Compound concentration 1000.0 nM
[14] = molecular target: Dual specificity mitogen-activated protein kinase kinase 7 (Homo sapiens) (UniProt O14733); conditions: Compound concentration 1000.0 nM
[15] = tested on: Epidermal growth factor receptor (Homo sapiens), P00533 [UNDEFINED MUTATION]; conditions: Compound concentration 1000.0 nM
[16] = molecular target: Serine/threonine-protein kinase LATS2 (Homo sapiens) (UniProt Q9NRM7); conditions: Compound concentration 1000.0 nM
[17] = molecular target: Muscarinic acetylcholine receptor M3 (Homo sapiens) (UniProt P20309); conditions: Compound concentration 10.0 uM
[18] = molecular target: Dual specificity protein kinase CLK1 (Homo sapiens) (UniProt P49759); conditions: Compound concentration 1000.0 nM
[19] = molecular target: SRSF protein kinase 1 (Homo sapiens) (UniProt Q96SB4); conditions: Compound concentration 1000.0 nM
[20] = molecular target: Serine/threonine-protein kinase WNK3 (Homo sapiens) (UniProt Q9BYP7); conditions: Compound concentration 1000.0 nM
[21] = molecular target: BMP-2-inducible protein kinase (Homo sapiens) (UniProt Q9NSY1); conditions: Compound concentration 1000.0 nM
[22] = molecular target: Myosin light chain kinase (Homo sapiens) (UniProt Q32MK0); conditions: Compound concentration 1000.0 nM
[23] = molecular target: Ephrin type-A receptor 3 (Homo sapiens) (UniProt P29320); conditions: Compound concentration 1000.0 nM
[24] = molecular target: Serine/threonine-protein kinase pim-2 (Homo sapiens) (UniProt Q9P1W9); conditions: Compound concentration 1000.0 nM
[25] = molecular target: Serine/threonine-protein kinase MARK1 (Homo sapiens) (UniProt Q9P0L2); conditions: Compound concentration 1000.0 nM
[26] = molecular target: Serine/threonine-protein kinase pim-3 (Homo sapiens) (UniProt Q86V86); conditions: Compound concentration 1000.0 nM
[27] = molecular target: Serine/threonine-protein kinase MRCK alpha (Homo sapiens) (UniProt Q5VT25); conditions: Compound concentration 1000.0 nM
[28] = tested on: Phosphatidylinositol 4,5-bisphosphate 3-kinase catalytic subunit alpha isoform (Homo sapiens), P42336 [I800L]; conditions: Compound concentration 1000.0 nM
[29] = molecular target: NUAK family SNF1-like kinase 1 (Homo sapiens) (UniProt O60285); conditions: Compound concentration 1000.0 nM
[30] = molecular target: Cyclin-dependent kinase 11B (Homo sapiens) (UniProt P21127); conditions: Compound concentration 1000.0 nM
[31] = molecular target: Focal adhesion kinase 1 (Homo sapiens) (UniProt Q05397); conditions: Compound concentration 1000.0 nM
[32] = molecular target: T1, 5-hydroxytryptamine receptor 1A (Homo sapiens) (UniProt P08908); conditions: Compound concentration 10.0 uM
T1 sequence (whole entry): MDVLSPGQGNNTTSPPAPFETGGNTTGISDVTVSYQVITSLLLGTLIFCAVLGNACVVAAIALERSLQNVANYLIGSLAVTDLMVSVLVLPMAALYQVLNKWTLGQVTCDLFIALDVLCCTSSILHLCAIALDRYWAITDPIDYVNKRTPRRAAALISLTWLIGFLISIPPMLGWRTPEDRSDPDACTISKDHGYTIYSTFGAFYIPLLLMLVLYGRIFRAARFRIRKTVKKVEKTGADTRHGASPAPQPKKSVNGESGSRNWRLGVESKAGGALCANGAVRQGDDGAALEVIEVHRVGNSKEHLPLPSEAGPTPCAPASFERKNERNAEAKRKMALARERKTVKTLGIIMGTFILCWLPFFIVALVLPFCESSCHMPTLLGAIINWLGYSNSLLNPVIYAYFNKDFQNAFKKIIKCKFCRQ

[33] = molecular target: Non-receptor tyrosine-protein kinase TNK1 (Homo sapiens) (UniProt Q13470); conditions: Compound concentration 1000.0 nM
[34] = molecular target: Serine/threonine-protein kinase 26 (Homo sapiens) (UniProt Q9P289); conditions: Compound concentration 1000.0 nM
[35] = molecular target: Cyclin-dependent kinase 14 (Homo sapiens) (UniProt O94921); conditions: Compound concentration 1000.0 nM
[36] = molecular target: Phosphatidylinositol 4,5-bisphosphate 3-kinase catalytic subunit beta isoform (Homo sapiens) (UniProt P42338); conditions: Compound concentration 1000.0 nM
[37] = molecular target: Phosphatidylinositol 4-phosphate 5-kinase type-1 alpha (Homo sapiens) (UniProt Q99755); conditions: Compound concentration 1000.0 nM
[38] = molecular target: Myosin light chain kinase, smooth muscle (Homo sapiens) (UniProt Q15746); conditions: Compound concentration 1000.0 nM
[39] = tested on: Tyrosine-protein kinase ABL1 (Homo sapiens), P00519 [F317L]; conditions: Compound concentration 1000.0 nM

BMP-2-inducible protein kinase (Homo sapiens), sequence (Q9NSY1 whole entry, looked up): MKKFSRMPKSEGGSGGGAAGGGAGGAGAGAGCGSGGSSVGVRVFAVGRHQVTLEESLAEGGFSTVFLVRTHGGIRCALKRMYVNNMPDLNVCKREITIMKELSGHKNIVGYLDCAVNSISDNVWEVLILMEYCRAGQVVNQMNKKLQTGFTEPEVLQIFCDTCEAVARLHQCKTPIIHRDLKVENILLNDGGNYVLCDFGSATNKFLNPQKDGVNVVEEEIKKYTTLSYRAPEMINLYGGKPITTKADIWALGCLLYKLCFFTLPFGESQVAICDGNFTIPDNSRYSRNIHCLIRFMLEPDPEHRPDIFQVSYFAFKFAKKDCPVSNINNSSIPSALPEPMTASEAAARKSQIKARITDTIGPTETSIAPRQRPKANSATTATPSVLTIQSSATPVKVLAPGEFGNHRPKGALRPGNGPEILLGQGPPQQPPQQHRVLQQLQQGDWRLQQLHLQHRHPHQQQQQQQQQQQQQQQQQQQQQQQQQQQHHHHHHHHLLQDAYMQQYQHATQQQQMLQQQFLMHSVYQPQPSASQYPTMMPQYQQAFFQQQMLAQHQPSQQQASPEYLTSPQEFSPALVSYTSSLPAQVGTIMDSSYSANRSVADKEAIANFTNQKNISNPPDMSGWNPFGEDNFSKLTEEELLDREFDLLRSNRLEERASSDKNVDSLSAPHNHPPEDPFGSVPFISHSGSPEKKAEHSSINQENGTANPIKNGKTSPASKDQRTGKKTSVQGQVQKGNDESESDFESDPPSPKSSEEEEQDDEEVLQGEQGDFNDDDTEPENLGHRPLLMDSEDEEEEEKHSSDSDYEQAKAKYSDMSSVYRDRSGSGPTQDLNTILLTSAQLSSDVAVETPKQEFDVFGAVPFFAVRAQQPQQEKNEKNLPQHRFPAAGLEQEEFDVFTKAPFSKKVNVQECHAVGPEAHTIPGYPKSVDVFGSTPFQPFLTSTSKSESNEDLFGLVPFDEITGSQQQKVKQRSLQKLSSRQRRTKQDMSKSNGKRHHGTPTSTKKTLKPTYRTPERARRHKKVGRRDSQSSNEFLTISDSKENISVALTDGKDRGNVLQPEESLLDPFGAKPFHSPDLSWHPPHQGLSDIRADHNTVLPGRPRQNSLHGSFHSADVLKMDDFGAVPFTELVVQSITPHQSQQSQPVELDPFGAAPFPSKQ
Interleukin-1 receptor-associated kinase 1 (Homo sapiens), sequence (P51617 whole entry, looked up): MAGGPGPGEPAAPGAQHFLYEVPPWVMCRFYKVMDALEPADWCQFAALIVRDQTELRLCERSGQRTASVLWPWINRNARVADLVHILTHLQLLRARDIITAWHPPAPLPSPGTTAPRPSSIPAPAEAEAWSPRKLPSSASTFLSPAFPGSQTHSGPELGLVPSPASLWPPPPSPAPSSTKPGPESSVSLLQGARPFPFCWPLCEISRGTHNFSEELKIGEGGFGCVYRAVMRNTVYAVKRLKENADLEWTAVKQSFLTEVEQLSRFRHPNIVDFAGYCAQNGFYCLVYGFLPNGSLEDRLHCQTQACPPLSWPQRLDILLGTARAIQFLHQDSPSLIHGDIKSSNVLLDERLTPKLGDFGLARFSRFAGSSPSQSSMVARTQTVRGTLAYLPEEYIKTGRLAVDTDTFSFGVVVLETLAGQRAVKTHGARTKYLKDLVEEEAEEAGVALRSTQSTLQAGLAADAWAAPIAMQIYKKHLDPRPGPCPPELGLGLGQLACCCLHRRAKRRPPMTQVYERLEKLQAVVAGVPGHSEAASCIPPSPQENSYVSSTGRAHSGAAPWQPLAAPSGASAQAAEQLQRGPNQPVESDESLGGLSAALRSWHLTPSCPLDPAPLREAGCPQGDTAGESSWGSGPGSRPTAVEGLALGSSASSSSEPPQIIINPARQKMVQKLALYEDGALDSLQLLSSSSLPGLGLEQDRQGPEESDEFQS
cGMP-dependent protein kinase 1 (Homo sapiens), sequence (Q13976 whole entry): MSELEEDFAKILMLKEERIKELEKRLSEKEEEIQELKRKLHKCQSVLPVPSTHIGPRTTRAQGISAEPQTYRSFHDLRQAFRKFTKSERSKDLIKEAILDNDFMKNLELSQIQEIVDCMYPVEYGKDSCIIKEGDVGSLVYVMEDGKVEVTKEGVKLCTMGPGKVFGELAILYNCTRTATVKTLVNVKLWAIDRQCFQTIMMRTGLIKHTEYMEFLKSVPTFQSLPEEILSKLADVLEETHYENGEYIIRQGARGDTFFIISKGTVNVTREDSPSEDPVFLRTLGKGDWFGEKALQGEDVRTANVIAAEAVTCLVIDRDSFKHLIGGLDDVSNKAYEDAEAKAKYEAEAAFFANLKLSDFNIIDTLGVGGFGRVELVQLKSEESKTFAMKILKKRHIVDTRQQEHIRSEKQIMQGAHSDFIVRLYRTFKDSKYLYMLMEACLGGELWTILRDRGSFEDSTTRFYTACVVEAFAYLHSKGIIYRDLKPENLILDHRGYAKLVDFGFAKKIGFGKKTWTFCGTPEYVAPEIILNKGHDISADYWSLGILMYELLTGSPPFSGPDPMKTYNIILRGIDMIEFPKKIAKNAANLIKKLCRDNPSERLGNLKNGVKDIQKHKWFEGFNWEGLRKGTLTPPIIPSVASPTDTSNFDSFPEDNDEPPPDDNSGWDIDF
Dual specificity mitogen-activated protein kinase kinase 7 (Homo sapiens), sequence (O14733 whole entry): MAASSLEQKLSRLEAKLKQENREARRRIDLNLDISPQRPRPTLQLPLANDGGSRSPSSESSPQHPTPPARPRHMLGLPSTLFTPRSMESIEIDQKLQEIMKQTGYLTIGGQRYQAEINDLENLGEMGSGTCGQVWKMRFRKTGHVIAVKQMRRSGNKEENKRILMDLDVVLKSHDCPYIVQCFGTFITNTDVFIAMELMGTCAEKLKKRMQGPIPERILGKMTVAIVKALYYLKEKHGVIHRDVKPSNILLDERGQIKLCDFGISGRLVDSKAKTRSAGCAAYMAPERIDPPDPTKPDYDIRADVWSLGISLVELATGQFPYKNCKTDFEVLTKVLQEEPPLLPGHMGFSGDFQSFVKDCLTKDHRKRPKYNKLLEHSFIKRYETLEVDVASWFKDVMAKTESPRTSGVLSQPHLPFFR
Non-receptor tyrosine-protein kinase TNK1 (Homo sapiens), sequence (Q13470 whole entry): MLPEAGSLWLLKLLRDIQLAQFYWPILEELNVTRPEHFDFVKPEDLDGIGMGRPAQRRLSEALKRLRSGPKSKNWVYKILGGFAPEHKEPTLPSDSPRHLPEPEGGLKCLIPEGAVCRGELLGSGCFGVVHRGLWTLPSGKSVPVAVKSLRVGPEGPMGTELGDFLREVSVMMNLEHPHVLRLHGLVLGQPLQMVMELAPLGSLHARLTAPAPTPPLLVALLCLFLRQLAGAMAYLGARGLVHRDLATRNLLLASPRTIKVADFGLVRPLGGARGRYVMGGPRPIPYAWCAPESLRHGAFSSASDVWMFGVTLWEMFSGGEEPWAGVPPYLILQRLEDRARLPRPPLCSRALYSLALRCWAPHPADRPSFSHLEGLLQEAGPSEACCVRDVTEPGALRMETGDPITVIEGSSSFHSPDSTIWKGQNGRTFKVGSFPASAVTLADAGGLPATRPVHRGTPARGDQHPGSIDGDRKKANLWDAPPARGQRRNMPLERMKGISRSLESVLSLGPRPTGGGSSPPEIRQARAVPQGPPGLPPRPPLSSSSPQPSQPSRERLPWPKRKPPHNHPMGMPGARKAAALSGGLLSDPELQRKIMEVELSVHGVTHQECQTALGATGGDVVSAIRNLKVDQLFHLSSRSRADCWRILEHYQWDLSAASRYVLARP
Phosphatidylinositol 4-phosphate 5-kinase type-1 alpha (Homo sapiens), sequence (Q99755 whole entry): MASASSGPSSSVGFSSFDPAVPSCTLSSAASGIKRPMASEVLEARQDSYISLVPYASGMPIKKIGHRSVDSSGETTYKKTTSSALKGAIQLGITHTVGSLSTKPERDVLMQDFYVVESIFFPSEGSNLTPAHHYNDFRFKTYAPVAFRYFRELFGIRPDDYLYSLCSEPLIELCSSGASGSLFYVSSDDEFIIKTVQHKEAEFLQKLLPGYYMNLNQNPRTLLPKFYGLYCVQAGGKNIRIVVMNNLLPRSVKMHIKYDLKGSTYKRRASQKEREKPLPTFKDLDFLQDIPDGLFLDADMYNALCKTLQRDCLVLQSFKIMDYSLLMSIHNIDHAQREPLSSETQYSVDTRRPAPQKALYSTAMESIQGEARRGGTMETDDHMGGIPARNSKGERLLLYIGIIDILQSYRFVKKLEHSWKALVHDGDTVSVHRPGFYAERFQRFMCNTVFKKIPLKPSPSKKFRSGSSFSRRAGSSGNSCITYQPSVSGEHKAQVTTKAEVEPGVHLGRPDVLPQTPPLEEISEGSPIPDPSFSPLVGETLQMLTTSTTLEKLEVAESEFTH
Dual specificity protein kinase CLK1 (Homo sapiens), sequence (P49759 whole entry, looked up): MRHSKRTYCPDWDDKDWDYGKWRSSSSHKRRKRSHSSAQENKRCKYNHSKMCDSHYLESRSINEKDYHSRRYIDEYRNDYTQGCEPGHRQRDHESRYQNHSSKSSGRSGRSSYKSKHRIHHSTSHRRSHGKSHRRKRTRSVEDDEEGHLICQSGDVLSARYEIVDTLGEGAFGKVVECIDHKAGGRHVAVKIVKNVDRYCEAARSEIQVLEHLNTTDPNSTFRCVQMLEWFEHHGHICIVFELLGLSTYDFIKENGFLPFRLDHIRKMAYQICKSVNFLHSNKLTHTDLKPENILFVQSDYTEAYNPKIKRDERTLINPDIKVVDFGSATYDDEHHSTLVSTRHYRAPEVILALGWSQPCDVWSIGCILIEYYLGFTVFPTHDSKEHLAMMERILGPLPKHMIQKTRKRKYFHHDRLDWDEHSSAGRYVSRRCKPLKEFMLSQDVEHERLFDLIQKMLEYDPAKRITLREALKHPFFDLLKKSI

| SMILES | residual activity [1] [%] | residual activity [2] [%] | inhibition [3] [%] | residual activity [4] [%] | residual activity [5] [%] | residual activity [6] [%] | residual activity [7] [%] | residual activity [8] [%] | residual activity [9] [%] | residual activity [10] [%] | residual activity [11] [%] | residual activity [12] [%] | residual activity [13] [%] | residual activity [14] [%] | residual activity [15] [%] | residual activity [16] [%] | inhibition [17] [%] | residual activity [18] [%] | residual activity [19] [%] | residual activity [20] [%] | further results |
| --- | --- | --- | --- | --- | --- | --- | --- | --- | --- | --- | --- | --- | --- | --- | --- | --- | --- | --- | --- | --- | --- |
| CCCCN(CCCC)C(=O)CN1C[C@@H](c2cc(OC)c3c(c2)OCO3)[C@H](C(=O)O)[C@H]1CC(C)(C)CCC [A-545] | 100 | 94.4 | 69.9 | 100 | 95.9 | 73 | 100 | 99.3 | 94.6 | 87 | 82.2 | 76.6 | 100 | 88.6 | 88.4 | 100 | 10.3 | 100 | 62.5 | 65.5 | residual activity [21]: 100%; residual activity [22]: 100%; residual activity [23]: 95.3%; residual activity [24]: 96.3%; residual activity [25]: 88.7%; residual activity [26]: 81.5%; residual activity [27]: 96.6%; residual activity [28]: 100%; residual activity [29]: 82.4%; residual activity [30]: 100%; residual activity [31]: 100%; inhibition [32]: 76.3%; residual activity [33]: 100%; residual activity [34]: 100%; residual activity [35]: 100%; residual activity [36]: 100%; residual activity [37]: 100%; residual activity [38]: 84.4%; residual activity [39]: 100% |
| CCCCN(CCCC)C(=O)CN1C[C@H](c2cc(OC)c3c(c2)OCO3)[C@@H](C(=O)O)[C@@H]1CC(C)(C)CCC [ABT-546] | 100 | 100 | -1.47 | 100 | 100 | 100 | 99.7 | 60.2 | 97.7 | 100 | 100 | 64.3 | 100 | 90.8 | 94.3 | 100 | -9.94 | 96.1 | 100 | 100 | residual activity [21]: 100%; residual activity [22]: 100%; residual activity [23]: 100%; residual activity [24]: 100%; residual activity [25]: 96.5%; residual activity [26]: 100%; residual activity [27]: 100%; residual activity [28]: 52.9%; residual activity [29]: 100%; residual activity [30]: 86.4%; residual activity [31]: 100%; inhibition [32]: 20.6%; residual activity [33]: 100%; residual activity [34]: 72.9%; residual activity [35]: 100%; residual activity [36]: 56.9%; residual activity [37]: 100%; residual activity [38]: 100%; residual activity [39]: 100% |
